Results reported in patent publication US11524956B2, “Alkyne substituted quinazoline compound and methods of use” (Newgen Therapeutics, Inc., priority 2011, dated 2022).
Where two headings read alike, the source gives them in different places.

Experiments:
[1] = test system: NCI-N87 cells; assay: Anti-proliferation assay of NCI-N87 cells (CCK-8); format: cell-based; conditions: Homo sapiens, 72h
Experimental: The anti-proliferative assays were performed in triplicates. 3000 cell/well of N87 cells were seeded in 96-well plate, and the cells were incubated for 24h at 37° C. to allow adherence. For the cell proliferation assay, N87 cells were cultured in full cell culture medium containing 0.3% v/v DMSO. A serials concentration of the tested compound (concentration range: 30 uM to 0.16 nM, 5-fold dilution) were added to the 96-welt plate. The incubation was continued for 72h. The culture medium was then removed, and the cell viability was measured by using CCK-8 cell proliferation kit as described in manual provided by the manufacturer. The log of the fractional growth inhibition was plotted against the log of the drug concentration, and the IC50 values were interpolated from the resulting linear regression curve fit. The IC50 value measured for Compound NT113 is <100 nM.

[2] = test system: NCI-H1975 cells; assay: Anti-proliferation assay of NCI-H1975 cells (CCK-8); format: cell-based; conditions: Homo sapiens, NCI-H1975, 72 h, 3 days
Experimental: The anti-proliferative assays were performed in triplicates. 3000 cell/well of N1975 cells were seeded in 96-well plate (medium: RPMI 1640, 5% FBS. 2 mM L-Glutamine). After 24 h, removal the medium in the plate was followed by the addition of compound of serial dilution in medium to the wells. After 3 days, the cells were treated with CCK-8 kit and incubated for additional 4 hours at 37° C. The plate was read at 450 nm. The log of the fractional growth inhibition was plotted against the log of the drug concentration, and the IC50 values were interpolated from the resulting linear regression curve fit. The IC50 value measured for Compound NT113 is <1000 nM.

[3] = Rat pharmacokinetics studies (plasma); format: in vivo, Sprague Dawley rats
Experimental: Sample preparation: The test article each was dissolved in 10% DMSO and 90% of (40% HP-β-CD in deionized water) to yield concentration at 2 mg/mL for intravenous and oral administration.
Method development and plasma samples analysis were performed by Analytical Sciences Division of the Testing Facility by means of LC-MS/MS. The analytical results were confirmed using quality control samples for intra-assay variation (within day variation). The accuracy of >66% of the quality control samples was between 80-120% of the known value(s).
Each group consisted of 3 male Sprague Dawley rats (7-8 week old, 200-300 g body weight). The test articles were administered by a single bolus intravenous injection via the lateral tail vein or via oral gavage.
Blood samples (approximately 300 μl) were collected via retro-orbital puncture after anaesthesia using mixed gas (CO2:O2=7:3) into tubes containing EDTA-K3 anticoagulant at appropriate time points. 10 time points (Groups 1-2): Pre-dose and post-dose at 5 min, 15 min, 30 min, 1 h, 2 h, 4 h, 6 h, 8 h and 24 h.
Analysis: The PK blood samples were centrifuged at approximately 8000 rpm for (3 minutes at 2-8° C. and the resulting plasma were separated and stored frozen at approximately −80° C. (following separation, the plasma may be initially placed on ice prior to being stored in the −80° C. freezer). All the plasma samples were labeled with detailed information such as study number, animal number, matrix, time points of collection and date of collection.
Standard set of parameters including Area Under the Curve (AUC(0-t) and AUC(0-∞)), elimination half-live (T1/2), maximum plasma concentration (Cmax), time to reach maximum plasma concentration (Tmax), clearance (CL), and volume of distribution (Vz) will be calculated using noncompartmental analysis modules in FDA certified pharmacokinetic program WinNonlin Professional v5.2 (Pharsight, USA) by the Study Director. Furthermore, the Bioavailability will be estimated using the following formula:
• AUC(0-t) Area under the curve from the time of dosing to the last measurable concentration • AUC(0-∞) Area under the curve from the time of dosing extrapolated to infinity, based on the last observed concentration • CL Total body clearance, CL=Dose/AUC • Cmax Maximum observed concentration, occurring at Tmax • F Bioavailability • MRT(0-∞) Mean residence time from the time of dosing to infinity • Tmax Time of maximum observed concentration • T1/2 Terminal half-life=In(2)/λz • Vz Volume of distribution based on the terminal phase

[4] = male, Sprague Dawley, rat plasma, IV 1 mg/Kg
[5] = male, Sprague Dawley, rat plasma, PO 5 mg/Kg

CN(C)C/C=C/C(=O)Nc1cc2c(Nc3ccc(F)c(Cl)c3)ncnc2cc1C#C[C@@H]1[C@H]2COC[C@@H]12 [Example 4, (E)-N-(4-(3-chloro-4-fluorophenylamino)-7-(2-((1R,5S,6s)-3-oxa-bicyclo[3.1.0]hexan-6-yl)ethynyl)quinazolin-6-yl)-4-(dimethylamino)but-2-enamide]
IC50 ([1]; read-out: Cell Proliferation Inhibition IC50 (nM) NCI-N87): < 100 nM
IC50 ([1]; read-out: IC50 NCI-N87 anti-proliferation): < 100 nM
IC50 ([2]; read-out: Cell Proliferation Inhibition IC50 (nM) NCI-H1975): 100 to 1000 nM
IC50 ([2]; read-out: IC50 NCI-H1975 anti-proliferation): < 1000 nM
bioavailability ([3]; male, Sprague Dawley, plasma, rat, PO 5 mg/Kg, using AUC(0-t) instead of AUC(0-∞), read-out: calculated oral bioavailability): 80.5%
AUC(0-inf) [3, 4]: 158 ng·h/mL
AUC(0-t) [3, 4]: 135 ng·h/mL
Cmax [3, 4]: 44.4 ng/mL
clearance [3, 4]: 105 mL/min/kg
half-life [3, 4]: 7.48 h
Vd ([3]; male, Sprague Dawley, rat plasma, IV 1 mg/Kg, read-out: Vz): 20.5 L/kg
AUC(0-inf) [3, 5]: 555 ng·h/mL
AUC(0-t) [3, 5]: 542 ng·h/mL
Cmax [3, 5]: 39.3 ng/mL
half-life [3, 5]: 14.9 h
CL ([3]; rat plasma, PO 5 mg/Kg): 150 mL/min/kg
Vz ([3]; rat plasma, PO 5 mg/Kg): 58.1 L/kg
F ([3]; rat, IV 1 mg/Kg): 100%
F ([3]; rat, PO 5 mg/Kg, from AUC(0-∞)): 70.1%
oral bioavailability and brain penetration (qualitative) ([3]; rat, oral administration): good oral bioavailability and brain penetration
